The results in this text go back to patent US7939550B2, “Aminopyrazole derivatives, process for the preparation thereof, and composition for preventing or treating ischemic diseases containing the same” (Korea Research Institute of Chemical Technology, priority 2006, dated 2011).

This experiment concerns Cardiomyocyte cell line H9c2 cells. Briefly: Inhibitory effect on ischemic cell death (chemical hypoxia, DAPI staining). It counts as cell-based. As to conditions: Rattus norvegicus, derivative 10 μM in DMSO, 30 min pretreatment, then chemical hypoxia solution 1 to 2 hours, DAPI stain, fluorescence microscope, DMSO control 25.86385, read-out: Apoptosis (%). On the procedure: The aminopyrazole derivatives of the present invention were examined for ischemic cell death inhibitory effect in cells according to the following procedure.
Cardiomyocyte cell line H9c2 cells were cultured in DMEM (Dulbecco's modified Eagle's medium) supplemented with 10% fetal bovine serum and 1% penicillin/streptomycin (100× solution). The cells were grown in 35 mm dishes such that the number thereof becomes 1×10^4, and cultured at 37° C. for 48 hours in a CO2 incubator. The cells were treated with 0.1% DMSO only (control), or the solutions dissolving the derivatives of Examples 1 to 30 (10 μM) in DMSO respectively. After 30 minutes, the cells were washed with PBS, and continuously treated with the DMSO solution (control) or the above solutions dissolving the derivatives together with chemical hypoxia solution (106 mM NaCl, 4.4 mM KCl, 1 mM MgCl2, 38 mM NaHCO3, 2.5 mM CaCl2, 20 mM 2-deoxy glucose, 1 mM NaCN) for 1 to 2 hours, while evaluating the cell damage by microscope. At the time when the sufficient damage were observed, the cells were washed with 1 ml of PBS twice, and then treated to fix with 1 ml of 3.7% formaldehyde. The cells obtained were washed with 1 ml of PBS again, stained with DAPI, and then washed with 1 ml of PBS in three times. The cell death of the cells was observed by a fluorescence microscope, and the degree of the observed cell death was converted to percentages.

With `COC(=O)c1nn(CCc2ccccc2)cc1NC(=O)CSc1ccc(C)cc1` [Example 6, 4-[2-(4-methyl-phenylsulfanyl)-acetylamino]-1-phenethyl-1H-pyrazole-3-carboxylic acid methyl ester], the cytotoxicity at 10 µM was determined as 5.43%.

`O=C(CSc1ccc(Br)cc1)Nc1cn(CCc2ccccc2)nc1CO` [Example 26, 2-(4-bromo-phenylsulfanyl)-N-(3-hydroxymethyl-1-phenethyl-4H-pyrazol-4-yl)-acetamide]: the cytotoxicity at 10 µM was found to be 7.27%.

Take `COC(=O)c1cc(NC(=O)CSc2ccc(Br)cc2)n(C)n1` [Example 21, 5-[2-(4-bromo-phenylsulfanyl)-acetylamino]-1-methyl-1H-pyrazole-3-carboxylic acid methyl ester]: the cytotoxicity at 10 µM turned out to be 8.33%.

In the case of `O=C(CSc1ccc(Br)cc1)Nc1cn(CCc2ccccc2)nc1C1=NCCO1` [Example 24, 2-(4-bromo-phenylsulfanyl)-N-[3-(4,5-dihydro-oxazol-2-yl)-1-phenethyl-1H-pyrazol-4-yl]-acetamide], the cytotoxicity at 10 µM was found to be 12.7%.

For `COC(=O)c1nn(CCc2ccccc2)cc1NC(=O)COc1ccc(Br)cc1` [Example 28, 4-[2-(4-bromophenoxy)-acetylamino]-1-phenethyl-1H-pyrazole-3-carboxylic acid methyl ester], the cytotoxicity at 10 µM came out at 3.74%.

As for `COC(=O)c1nn(CCc2ccccc2)cc1NC(=O)CSc1ccc([N+](=O)[O-])cc1` [Example 4, 4-[2-(4-nitro-phenylsulfanyl)-acetylamino]-1-phenethyl-1H-pyrazole-3-carboxylic acid methyl ester], the cytotoxicity at 10 µM stood at 3.74%.

`COC(=O)c1nn(C)cc1NC(=O)CSc1ccc(Br)cc1` [Example 14, 4-[2-(4-bromo-phenylsulfanyl)-acetylamino]-1-methyl-1H-pyrazole-3-carboxylic acid methyl ester]: the cytotoxicity at 10 µM stood at 13.3%.

As for `NC(=O)c1nn(CCc2ccccc2)cc1NC(=O)CSc1ccc(Br)cc1` [Example 25, 4-[2-(4-bromo-phenylsulfanyl)-acetylamino]-1-phenethyl-1H-pyrazole-3-carboxylic acid amide], the cytotoxicity at 10 µM amounted to 6.07%.

As for `COC(=O)c1nn(CCc2ccccc2)cc1NC(=O)CSc1ccccc1` [Example 2, 4-[2-(phenylsulfanyl)-acetylamino]-1-phenethyl-1H-pyrazole-3-carboxylic acid methyl ester], the cytotoxicity at 10 µM was 11%.

For `COC(=O)c1nn(CCc2ccccc2)cc1NC(=O)C(Sc1ccc(Br)cc1)c1ccccc1` (stereo not drawn) [Example 20, 4-[2-(4-bromo-phenylsulfanyl)-2-phenyl-acetylamino]-1-phenethyl-1H-pyrazole-3-carboxylic acid methyl ester], the cytotoxicity at 10 µM was found to be 6.07%.

`O=C(CSc1ccc(Br)cc1)Nc1cn(CCc2ccccc2)nc1C(=O)O` [Example 23, 4-[2-(4-bromo-phenylsulfanyl)-acetylamino]-1-phenethyl-1H-pyrazole-3-carboxylic acid]: the cytotoxicity at 10 µM amounted to 7.76%.

In the case of `COC(=O)c1nn(CCc2ccccc2)cc1NC(=O)CSc1ccc(C)c(C)c1` [Example 11, 4-[2-(3,4-dimethyl-phenylsulfanyl)-acetylamino]-1-phenethyl-1H-pyrazole-3-carboxylic acid methyl ester], the cytotoxicity at 10 µM is 15.7%.

Consider `COC(=O)c1nn(Cc2ccccc2)cc1NC(=O)CSc1ccccc1` [Example 13, 4-[2-phenylsulfanylacetylamino]-1-benzyl-1H-pyrazole-3-carboxylic acid methyl ester], for which the cytotoxicity at 10 µM worked out at 9.81%.

In the case of `COC(=O)c1nn(CCc2ccccc2)cc1NC(=O)CCSc1ccc(Br)cc1` [Example 18], the cytotoxicity at 10 µM was 8.75%.

In the case of `COC(=O)c1nn(CCc2ccccc2)cc1NC(=O)C[S+]([O-])c1ccccn1` (stereo not drawn) [Example 9, 4-[2-(2-pyridylsulfinyl)-acetylamino]-1-phenethyl-1H-pyrazole-3-carboxylic acid methyl ester], the cytotoxicity at 10 µM was 3.74%.

In the case of `COC(=O)c1nn(CCc2ccccc2)cc1NC(=O)CS(=O)(=O)c1ccccn1` [Example 10, 4-[2-(2-pyridylsulfonyl)-acetylamino]-1-phenethyl-1H-pyrazole-3-carboxylic acid methyl ester], the cytotoxicity at 10 µM was 7.27%.

On to `COC(=O)c1nn(CCc2ccccc2)cc1NC(=O)CSc1cccc(OC)c1` [Example 3, 4-[2-(3-methoxy-phenylsulfanyl)-acetylamino]-1-phenethyl-1H-pyrazole-3-carboxylic acid methyl ester], for which the cytotoxicity at 10 µM stood at 8.26%.

Take `COC(=O)c1nn(CCc2ccccc2)cc1NC(=O)CSc1ccc(Br)cc1` [Example 1, 4-[2-(4-bromo-phenylsulfanyl)-acetylamino]-1-phenethyl-1H-pyrazole-3-carboxylic acid methyl ester]: the cytotoxicity at 10 µM turned out to be 5.79%.

Turning to `COC(=O)c1nn(CCc2ccccc2)cc1NC(=O)CSc1ccccc1N` [Example 5, 4-[2-(2-amino-phenylsulfanyl)-acetylamino]-1-phenethyl-1H-pyrazole-3-carboxylic acid methyl ester], the cytotoxicity at 10 µM is 6.48%.

For the molecule `COCc1nn(CCc2ccccc2)cc1NC(=O)CSc1ccc(Br)cc1` [Example 30, 2-(4-bromo-phenylsulfanyl)-N-(3-methoxymethyl-1-phenethyl-1H-pyrazol-4-yl)-acetamide], the cytotoxicity at 10 µM was found to be 5.22%.

For `COC(=O)c1c(NC(=O)CSc2ccc(Br)cc2)cnn1C` [Example 17, 4-[2-(4-bromo-phenylsulfanyl)-acetylamino]-2-methyl-2H-pyrazole-3-carboxylic acid methyl ester], the cytotoxicity at 10 µM turned out to be 13.9%.

As for `COC(=O)c1nn(CCc2ccccc2)cc1NC(=O)CCc1ccccc1` [Example 27, 4-[3-phenyl-propionylamino]-1-phenethyl-4H-pyrazole-3-carboxylic acid methyl ester], the cytotoxicity at 10 µM was 5.08%.

`COC(=O)c1nn(CCc2ccccc2)cc1NC(=O)CSc1ccc(F)cc1` [Example 7, 4-[2-(4-fluoro-phenylsulfanyl)-acetylamino]-1-phenethyl-1H-pyrazole-3-carboxylic acid methyl ester]: the cytotoxicity at 10 µM was determined as 6.49%.

As for `COC(=O)c1nn(CCc2ccccc2)cc1NC(=O)CNc1ccc(Br)cc1` [Example 29, 4-[2-(4-bromo-phenylamino)-acetylamino]-1-phenethyl-1H-pyrazole-3-carboxylic acid methyl ester], the cytotoxicity at 10 µM was 9.31%.

For the molecule `COC(=O)c1nn(Cc2ccccc2)cc1NC(=O)CSc1ccc(Br)cc1` [Example 12, 4-[2-(4-bromo-phenylsulfanyl)-acetylamino]-1-benzyl-1H-pyrazole-3-carboxylic acid methyl ester], the cytotoxicity at 10 µM was 11.5%.

With `CCOC(=O)c1cnn(CCc2ccccc2)c1NC(=O)CSc1ccc(Br)cc1` [Example 19, 5-[2-(4-bromo-phenylsulfanyl)-acetylamino]-1-phenethyl-1H-pyrazole-4-carboxylic acid ethyl ester], the cytotoxicity at 10 µM is 8.19%.

Regarding `COC(=O)c1cc(NC(=O)CSc2ccccc2)n(C)n1` [Example 22, 1-methyl-5-(2-phenylsulfanyl-acetylamino)-1H-pyrazole-3-carboxylic acid methyl ester], the cytotoxicity at 10 µM is 10.7%.

For the molecule `COC(=O)c1nn(CCc2ccccc2)cc1NC(=O)CSc1ccccn1` [Example 8, 4-[2-(2-pyridylsulfanyl)-acetylamino]-1-phenethyl-1H-pyrazole-3-carboxylic acid methyl ester], the cytotoxicity at 10 µM stood at 5.65%.

Take `COC(=O)c1c(NC(=O)CSc2ccc(Br)cc2)cnn1CCc1ccccc1` [Example 16, 4-[2-(4-bromo-phenylsulfanyl)-acetylamino]-2-phenethyl-2H-pyrazole-3-carboxylic acid methyl ester]: the cytotoxicity at 10 µM was 10.8%.

Turning to `COC(=O)c1nn(C)cc1NC(=O)CSc1ccccc1` [Example 15, 4-[2-phenylsulfanylacetylamino]-1-methyl-1H-pyrazole-3-carboxylic acid methyl ester], the cytotoxicity at 10 µM was found to be 11.3%.
